Experiments:
Recombinant IKKα = molecular target: T1, Recombinant IKKα (Homo sapiens, UniProt O15111); assay: DELFIA IKKα kinase assay (apparent Ki, Cheng-Prusoff); type: biochemical
T1 construct: purchased Millipore, Dundee, UK
T1 sequence (O15111 1-745): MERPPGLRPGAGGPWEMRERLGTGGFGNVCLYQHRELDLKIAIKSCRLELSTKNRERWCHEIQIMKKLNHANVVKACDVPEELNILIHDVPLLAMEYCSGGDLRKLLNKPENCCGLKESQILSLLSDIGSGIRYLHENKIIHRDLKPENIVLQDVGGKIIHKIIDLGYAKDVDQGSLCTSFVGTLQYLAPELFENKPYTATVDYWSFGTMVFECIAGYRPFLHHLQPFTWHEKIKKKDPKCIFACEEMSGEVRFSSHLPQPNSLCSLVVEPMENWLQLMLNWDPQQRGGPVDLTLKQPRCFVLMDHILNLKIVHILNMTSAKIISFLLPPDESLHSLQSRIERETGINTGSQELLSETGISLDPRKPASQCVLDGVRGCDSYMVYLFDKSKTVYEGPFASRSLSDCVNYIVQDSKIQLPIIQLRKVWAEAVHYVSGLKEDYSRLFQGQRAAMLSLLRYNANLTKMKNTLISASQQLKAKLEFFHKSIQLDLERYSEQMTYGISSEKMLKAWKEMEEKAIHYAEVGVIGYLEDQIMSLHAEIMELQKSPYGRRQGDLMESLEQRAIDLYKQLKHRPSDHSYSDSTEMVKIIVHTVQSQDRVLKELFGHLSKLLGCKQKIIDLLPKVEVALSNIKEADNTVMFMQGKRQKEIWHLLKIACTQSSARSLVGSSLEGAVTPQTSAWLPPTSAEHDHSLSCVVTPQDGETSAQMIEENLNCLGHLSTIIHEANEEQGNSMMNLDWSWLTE
Experimental: (§1) IKKα and IKKβ inhibitory activity was determined using three different assays: a dissociation enhanced ligand fluorescent immunoassay (DELFIA) based on the protocol of HTScan™ IKKβ Kinase Assay (Cell Signaling Technology, USA); an Adapta IKKα assay (performed by Life Technologies); a Z′-LYTE™ IKKβ assay (performed by Life Technologies).
(§2) Recombinant IKKα or IKKβ, 37 nM, (Millipore, Dundee, UK) was incubated with IηB-α (Ser32) (New England Biolabs, Hitchin, UK) biotinylated peptide substrate (0.375 μM) and 40 μM ATP in assay buffer (40 mM Tris-HCl (pH 7.5), 20 mM MgCl2, EDTA 1 mM, DTT 2 mM and BSA 0.01 mg/ml) in a V-well 96-well plate in the presence and absence of test compound. The assay plate was incubated for 60 minutes at 30° C. after which the kinase reaction was quenched by the addition of 50 mM EDTA, pH8. The resulting mixture was transferred to a streptavidin coated 96-well plate (Perkin Elmer, Beaconsfield, UK) and incubated for 1 hour at 30° C. to immobilise the substrate peptide. After three washes with wash buffer (0.01 M phosphate buffered saline (PBS), 0.05% Tween −20, pH 7.4) a primary antibody against the phosphorylated substrate (phospho-IηB-a) (Ser32/36) (5A5) Mouse mAb (New England Biolabs, Hitchin, UK) (1:1000 dilution with 1% bovine serum albumin (BSA) in wash buffer) was added and incubated at 37° C. for 2 h.
(§3) After a further three washes, a secondary europiated antibody (Eu-N1 labelled anti-mouse IgG, (Perkin Elmer, Beaconsfield, UK) diluted 1:500 in 1% BSA/wash buffer) was added and incubated at 30° C. for 30 minutes. After a further five washes, DELFIA enhancement solution—(Perkin Elmer, Beaconsfield UK) was added and allowed to incubate for 10 min at room temperature, protected from light, to facilitate the chemifluorescent detection. The relative fluorescence units (RFU) signal were measured on a Wallac Victor 1420 multilabel counter (Perkin Elmer, Beaconsfield, UK), in time-resolved fluorescence mode. The counter was set at an excitation wavelength of 340 nm with a 400 μs delay before detecting emitted light at 615 nm. The apparent Ki of the […] was calculated for each compound using the Cheng-Prusoff Equation.
(§4) The IKKα and IKKβ figures quoted in non-italicised form are from the DELFIA assay described above.

Recombinant IKKβ = molecular target: T2, Recombinant IKKβ (Homo sapiens, UniProt O14920); assay: DELFIA IKKβ kinase assay (apparent Ki, Cheng-Prusoff); type: biochemical
T2 construct: purchased Millipore, Dundee, UK
T2 sequence (O14920 1-756): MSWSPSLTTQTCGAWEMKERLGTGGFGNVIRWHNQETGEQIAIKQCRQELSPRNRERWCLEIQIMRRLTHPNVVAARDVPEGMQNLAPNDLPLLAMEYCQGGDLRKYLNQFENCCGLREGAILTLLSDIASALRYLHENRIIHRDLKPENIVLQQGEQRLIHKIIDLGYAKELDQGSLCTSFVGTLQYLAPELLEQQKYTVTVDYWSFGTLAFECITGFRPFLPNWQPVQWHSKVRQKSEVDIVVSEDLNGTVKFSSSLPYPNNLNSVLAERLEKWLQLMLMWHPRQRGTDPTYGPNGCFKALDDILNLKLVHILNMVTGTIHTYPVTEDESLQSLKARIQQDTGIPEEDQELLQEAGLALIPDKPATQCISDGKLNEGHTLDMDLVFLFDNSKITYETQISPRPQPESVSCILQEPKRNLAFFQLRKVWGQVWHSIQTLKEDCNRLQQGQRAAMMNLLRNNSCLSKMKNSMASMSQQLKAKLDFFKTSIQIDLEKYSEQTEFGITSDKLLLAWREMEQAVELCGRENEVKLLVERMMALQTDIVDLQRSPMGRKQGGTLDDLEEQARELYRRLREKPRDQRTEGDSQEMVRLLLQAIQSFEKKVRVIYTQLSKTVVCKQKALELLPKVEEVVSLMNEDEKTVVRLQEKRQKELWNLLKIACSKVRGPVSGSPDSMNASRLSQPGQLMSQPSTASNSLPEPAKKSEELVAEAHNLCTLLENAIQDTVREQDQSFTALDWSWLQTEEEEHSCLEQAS
Experimental: as §1, §2, §3, §4

[1] = DELFIA assay (first line of an example)
[2] = non-italicised figure: DELFIA assay

Structure (SMILES) | Ki (Recombinant IKKα; [1]) [nM] | Ki (Recombinant IKKβ; [1]) [nM] | Ki (Recombinant IKKα; [2]) [nM] | Ki (Recombinant IKKβ; [2]) [nM]
Nc1n[nH]c2c(C#CC3(O)CCCCCC3)cc(-c3ccnc4[nH]ccc34)cc12 [Example 209, 1-((3-Amino-5-(1H-pyrrolo[2,3-b]pyridin-4-yl)-1H-indazol-7-yl)ethynyl)cycloheptan-1-ol] | 153 | 2330 |  | 
Nc1cc(-c2cc(-c3cccnc3)c3[nH]nc(N)c3c2)ccn1 [Example 127] |  |  | 114 | 1680
CC(C)(C)C#Cc1cc(-c2ccnc(NC(=O)C3CCCC3)c2)cc2c(N)n[nH]c12 [Example 173, N-(4-(3-Amino-7-(3,3-dimethylbut-1-yn-1-yl)-1H-indazol-5-yl)pyridin-2-yl)cyclopentanecarboxamide] |  |  | 298 | 23800
CC(C)(C)C#Cc1cc(-c2ccnc3[nH]c(C(F)(F)F)nc23)cc2c(N)n[nH]c12 [Example 308, 7-(3,3-dimethylbut-1-yn-1-yl)-5-(2-(trifluoromethyl)-3H-imidazo[4,5-b]pyridin-7-yl)-1H-indazol-3-amine] | 223 | > 3330 |  | 
CC(C)(C)C#Cc1cc(-c2ccnc(NCCC(F)(F)F)c2)cc2c(N)n[nH]c12 [Example 283, 7-(3,3-Dimethylbut-1-yn-1-yl)-5-(2-((3,3,3-trifluoropropyl)amino)pyridin-4-yl)-1H-indazol-3-amine] | 215 | > 10000 |  | 
Nc1n[nH]c2ccc(-c3ccnc(NC(=O)NCc4ccncc4)c3)cc12 [Example 49, 1-(4-(3-Amino-1H-indazol-5-yl)pyridin-2-yl)-3-(pyridin-4-ylmethyl)urea] |  |  | 304 | 1840
Nc1n[nH]c2ccc(-c3ccnc(NC(=O)Nc4ccc(F)cc4)c3)cc12 [Example 62, 1-(4-(3-Amino-1H-indazol-5-yl)pyridine-2-yl)-3-(4-fluorophenyl)urea] |  |  | 22 | 115
Nc1n[nH]c2c(Br)cc(-c3ncnc4[nH]ccc34)cc12 [Example 11, 7-Bromo-5-(7H-pyrrolo[2,3-d]pyrimidin-4-yl)-1H-indazol-3-amine] |  |  | 39 | 258
Nc1cc(-c2cc(Cl)c3[nH]nc(N)c3c2)ccn1 [Example 1, 5-(2-Aminopyridin-4-yl)-7-chloro-1H-indazol-3-amine] |  |  | 55 | 880
Nc1cc(-c2cc(-c3ccc(CN4CCOCC4)cc3)c3[nH]nc(N)c3c2)ccn1 [Example 122, 5-(2-Aminopyridin-4-yl)-7-(4-(morpholinomethyl)phenyl)-1H-indazol-3-amine] |  |  | 52 | 1260
Nc1n[nH]c2ccc(-c3ccnc(N[C@H]4CC[C@H](O)CC4)c3)cc12 [Example 24, 5-{2-[(Trans-4-hydroxycyclohexyl)amino]pyridin-4-yl}-1H-indazol-3-amine] |  |  | 100 | > 10000
Cc1ccccc1NC(=O)Nc1cc(-c2ccc3[nH]nc(N)c3c2)ccn1 [Example 66, 1-(4-(3-Amino-1H-indazol-5-yl)pyridin-2-yl)-3-(o-tolyl)urea] |  |  | 46 | 1050
COC(=O)c1cccc(C#Cc2c(-c3ccc4[nH]nc(N)c4c3)ccnc2N)c1 [Example 79, Methyl 3-((2-amino-4-(3-amino-1H-indazol-5-yl)149yridine-3-yl)ethynyl)benzoate] |  |  | 17 | 128
Nc1n[nH]c2ccc(-c3ccnc(NC(=O)NCCCO)c3)cc12 [Example 42, 1-(4-(3-Amino-1H-indazol-5-yl)pyridin-2-yl)-3-(3-hydroxypropyl)urea] |  |  | 114 | 670
Nc1nccc(-c2ccc3[nH]nc(N)c3c2)c1CCC1(O)CCCCC1 [Example 102, 1-(2-(2-Amino-4-(3-amino-1H-indazol-5-yl)pyridin-3-yl)ethyl)cyclohexan-1-ol] |  |  | 8980 | 
CC(C)(C)C#Cc1cc(-c2ccnc(NS(C)(=O)=O)c2)cc2c(N)n[nH]c12 [Example 193, N-(4-(3-Amino-7-(3,3-dimethylbut-1-yn-1-yl)-1H-indazol-5-yl)pyridine-2-yl)methanesulfonamide] | 5520 |  |  | 
CC(=O)Nc1cc(-c2cc(C#Cc3ccccc3)c3[nH]nc(N)c3c2)ccn1 [Example 178, N-(4-(3-Amino-7-(phenylethynyl)-1H-indazol-5-yl)pyridin-2-yl)acetamide] |  |  | 22 | 
Nc1nccc(-c2ccc3[nH]nc(N)c3c2)c1CCCCO [Example 101, 4-(2-Amino-4-(3-amino-1H-indazol-5-yl)pyridin-3-yl)butan-1-ol] |  |  | 5580 | 
CC(C)(C)C#Cc1cc(-c2ccnc3[nH]c(CN4CCOCC4)cc23)cc2c(N)n[nH]c12 [Example 279, 7-(3,3-Dimethylbut-1-yn-1-yl)-5-(2-(morpholinomethyl)-1H-pyrrolo[2,3-b]pyridin-4-yl)-1H-indazol-3-amine] | 13 |  |  | 
CC(C)(C)C#Cc1cc(-c2cc(N)nc(F)c2)cc2c(N)n[nH]c12 [Example 150, 5-(2-Amino-6-fluoropyridin-4-yl)-7-(3,3-dimethylbut-1-yn-1-yl)-1H-indazol-3-amine] |  |  | 573 | 
CC(C)(C)C#Cc1cc(-c2cc(N)nc(N)c2)cc2c(N)n[nH]c12 [Example 151, 4-(3-Amino-7-(3,3-dimethylbut-1-yn-1-yl)-1H-indazol-5-yl)pyridine-2,6-diamine] |  |  | 931 | 
CC(=O)Nc1cc(-c2cc(C#CC(C)(C)C)c3[nH]nc(N)c3c2)cc(F)n1 [Example 195, N-(4-(3-amino-7-(3,3-dimethylbut-1-yn-1-yl)-1H-indazol-5-yl)-6-fluoropyridin-2-yl)acetamide] | 21800 |  |  | 
CC1(C#Cc2cc(-c3ccnc(NC4CC4)c3)cc3c(N)n[nH]c23)COC1 [Example 176, 5-(2-(Cyclopropylamino)pyridine-4-yl)-7-((3-methyloxetan-3-yl)ethynyl)-1H-indazol-3-amine] |  |  | 19 | 
CC(C)(C)C#Cc1cc(-c2ccnc(N)n2)cc2c(N)n[nH]c12 [Example 143, 5-(2-Aminopyrimidin-4-yl)-7-(3,3-dimethylbut-1-yn-1-yl)-1H-indazol-3-amine] |  |  | 517 | 
Nc1nccc(-c2ccc3[nH]nc(N)c3c2)c1CCCCCO [Example 103, 5-(2-Amino-4-(3-amino-1H-indazol-5-yl)pyridin-3-yl)pentan-1-ol] |  |  | 24800 | 

From patent US20250304576A1 (Cancer Research Technology Limited, priority 2022, published 2025)
